Source: paper PMC11855827, “High-Throughput Screening of Five Compound Libraries for Anthelmintic Activity and Toxicity Leads to the Discovery of Two Flavonoid Compounds” (International Journal of Molecular Sciences, 2025)

System: C. elegans
Conditions: Table S2, C. elegans SS assay, 110 μM, averages of 4 data points

Compound	Percentage of motility inhibition 0 h [%]	Percentage of motility inhibition 24 h [%]
C=C1CC[C@H]2[C@@H](/C=C(\C)C(=O)[C@@]3(O)C[C@H](C)[C@H](O)[C@@H]3[C@@H]1O)C2(C)C [Lathyrol]	1	3
CCCCCCCCCCCC(=O)O [Lauric acid]	58	61
COc1cc2c(cc1O)C[C@@H]1NCCc3cc(O)c(OC)c-2c31.Cl [Laurolitsine (hydrochloride)]	36	5
COC(=O)N[C@H](C(=O)N1CC2(CC2)C[C@H]1c1ncc(-c2ccc3c(c2)C(F)(F)c2cc(-c4ccc5nc([C@@H]6[C@H]7CC[C@H](C7)N6C(=O)[C@@H](NC(=O)OC)C(C)C)[nH]c5c4)ccc2-3)[nH]1)C(C)C.O=C(O)C(O)C(O)C(=O)O [Ledipasvir (D‐tartrate)]	34	13
COC(=O)N[C@H](C(=O)N1CC2(CC2)C[C@H]1c1nc(-c2ccc3c(c2)C(F)(F)c2cc(-c4ccc5[nH]c([C@@H]6[C@H]7CC[C@H](C7)N6C(=O)[C@@H](NC(=O)OC)C(C)C)nc5c4)ccc2-3)c[nH]1)C(C)C [Ledipasvir (acetone)]	14	4
CC(C)c1ccc2c(c1)CC[C@H]1[C@](C)(CN)CCC[C@]21C.Cl [Leelamine (hydrochloride)]	22	57
COc1cc(C(=O)OCCCCN=C(N)N)cc(OC)c1O.Cl [Leonurine (hydrochloride)]	0	0
COc1cccc(C[n+]2cn(Cc3ccccc3)c(C)c2C)c1.[Cl-] [Lepidiline C]	0	0
O=c1c(O[C@@H]2O[C@H](CO)[C@@H](O)[C@H](O)[C@H]2O[C@@H]2OC[C@@H](O)[C@H](O)[C@H]2O)c(-c2ccc(O)cc2)oc2cc(O)cc(O)c12 [Leucoside]	9	8
CC(C)=CCC[C@](C)(O)[C@@H]1CC=C(C)CC1 [Levomenol]	37	50
COc1c(/C=C/C(=O)c2ccc(O)cc2)ccc(O)c1CC=C(C)C [Licochal cone C]	0	8
CC(C)=CCc1c(O)ccc(-c2coc3cc(O)cc(O)c3c2=O)c1O [Licoisoflavone A]	0	10
CC1(C)[C@@H](O[C@@H]2O[C@H](C(=O)O)[C@@H](O)[C@H](O)[C@H]2O[C@@H]2O[C@H](C(=O)O)[C@@H](O)[C@H](O)[C@H]2O)CC[C@]2(C)[C@H]3C(=O)C=C4[C@@H]5C[C@](C)(C(=O)O)CC[C@]5(C)CC[C@@]4(C)[C@]3(C)CC[C@@H]12 [Licorice-saponin H2]	0	14
C[C@]1(C(=O)O)CC[C@]2(C)CC[C@]3(C)C(=CC(=O)[C@@H]4[C@@]5(C)CC[C@H](O[C@@H]6O[C@H](C(=O)O)[C@@H](O)[C@H](O)[C@H]6O[C@@H]6O[C@H](C(=O)O)[C@@H](O)[C@H](O)[C@H]6O)[C@](C)(CO)[C@@H]5CC[C@]43C)[C@@H]2C1 [Licoricesaponin G2]	2	10
COc1cc2c(cc1OC)[C@@H](Cc1ccc(O)c(Oc3cc4c(cc3OC)CCN(C)[C@@H]4Cc3ccc(O)cc3)c1)N(C)CC2 [Liensinine]	34	8
Cc1nc(C)c(C)nc1C.Cl [Ligustrazine (hydrochloride)]	0	17
C[C@@H]1O[C@@H](OC[C@H]2O[C@@H](Oc3cc(O)c4c(=O)cc(-c5ccc(O)cc5)oc4c3)[C@H](O[C@@H]3O[C@@H](C)[C@H](O)[C@@H](O)[C@H]3O)[C@@H](O)[C@@H]2O)[C@H](O)[C@H](O)[C@H]1O [Ligustroflavone]	10	8
COC(=O)C1=COC(O[C@@H]2O[C@H](CO)[C@@H](O)[C@H](O)[C@H]2O)/C(=C/C(=O)O)C1CC(=O)OCCc1ccc(O)cc1 (stereo partly shown) [Ligustrosidic acid]	3	24
COc1ccc(-c2cc(=O)c3c(O)cc(O[C@@H]4O[C@H](CO[C@@H]5O[C@@H](C)[C@H](O)[C@@H](O)[C@H]5O)[C@@H](O)[C@H](O)[C@H]4O)cc3o2)cc1 [Linarin]	15	23
CCC[C@@H]1C[C@@H](C(=O)N[C@@H]([C@H]2O[C@H](SC)[C@H](O)[C@@H](O)[C@H]2O)[C@@H](C)O)N(C)C1.Cl.O [Lincomycin (hydrochloride hydrate)]	1	0
C=C1[C@H]2C[C@H]2[C@]2(C)Cc3occ(C)c3[C@H](O)[C@@H]12 [Lindenenol]	0	19
C=C1[C@H]2C[C@H]2[C@]2(C)Cc3occ(C)c3[C@H](OC(C)=O)[C@@H]12 [Linderene acetate]	8	20

Compound	Percentage of motility inhibition 0 h [%]	Percentage of motility inhibition 24 h [%]
O=C1C[C@@H](c2ccc(O)cc2)Oc2cc(O)ccc21 [Liquiriti genin]	44	28
COc1cc2c3c(c1O)-c1ccccc1C[C@@H]3N(C)CC2 [Lirinidine]	0	6
O.O.O.O.O=C([O-])CC(O)(CC(=O)[O-])C(=O)[O-].[Li+].[Li+].[Li+] [Lithium citrate (tetrahydrate)]	13	0
CN1[C@@H](CC(=O)c2ccccc2)CCC[C@H]1CC(=O)c1ccccc1 [Lobelanine]	0	5
CN1[C@@H](CC(=O)c2ccccc2)CCC[C@H]1C[C@H](O)c1ccccc1.Cl [Lobeline (hydrochloride)]	26	30
COC(=O)C1=CO[C@@H](O)[C@@H]2[C@@H](C)[C@@H](O)C[C@H]12 [Loganetin]	0	2
CCn1cc(C(=O)O)c(=O)c2cc(F)c(N3CCNC(C)C3)c(F)c21.Cl (stereo not shown) [Lomefloxacin (hydrochloride)]	39	0
CC[C@](C)(C#N)O[C@@H]1O[C@H](CO)[C@@H](O)[C@H](O)[C@H]1O [Lotaustralin]	11	20
COc1cc2c(cc1O)CC[N+](C)(C)[C@@H]2Cc1ccc(O)cc1.[OH-] [Lotusine (hydroxide)]	4	0
COc1ccc(CCC(=O)c2ccc(O)cc2)c(OC)c1 [Loureirin A]	11	0
COc1cc(OC)c(CCC(=O)c2ccc(O)cc2)c(OC)c1 [Loureirin B]	10	0
C[C@H](CCC(=O)O)[C@H]1CC(=O)[C@@]2(C)C3=C(C(=O)C[C@]12C)[C@@]1(C)CCC(=O)C(C)(C)[C@@H]1C[C@@H]3O [Lucideric acid A]	0	20
CC1(C)CC[C@]2(C(=O)O[C@@H]3O[C@H](CO)[C@@H](O)[C@H](O)[C@H]3O)CC[C@]3(C)C(=CC[C@@H]4[C@@]5(C)C[C@@H](O)[C@H](O[C@@H]6O[C@H](CO)[C@@H](O)[C@H](O)[C@H]6O)[C@@](C)(CO)[C@@H]5CC[C@]43C)[C@@H]2C1 [Lucyoside B]	9	4
C=C(C)[C@@H]1CC[C@]2(C)CC[C@]3(C)[C@H](CC[C@@H]4[C@@]5(C)CC[C@H](OC(C)=O)C(C)(C)[C@@H]5CC[C@]43C)[C@@H]12 [Lupeol acetate]	0	0
O=c1cc(-c2ccc(O)c(O)c2)oc2cc(O)cc(O[C@@H]3O[C@H](CO)[C@@H](O)[C@H](O)[C@H]3O)c12 [Luteolin 5‐O‐glucoside]	8	0
O=C(O)[C@H]1O[C@@H](Oc2cc(O)c3c(=O)cc(-c4ccc(O)c(O)c4)oc3c2)[C@H](O)[C@@H](O)[C@@H]1O [Luteolin 7‐O‐glucuronide]	22	45
O=C(O)[C@H]1O[C@@H](O[C@H]2[C@H](Oc3cc(O)c4c(=O)cc(-c5ccc(O)c(O)c5)oc4c3)O[C@H](C(=O)O)[C@@H](O)[C@@H]2O)[C@H](O)[C@@H](O)[C@@H]1O [Luteolin 7‐diglucuronide]	20	7
Oc1cc(O)c2ccc(-c3ccc(O)c(O)c3)[o+]c2c1.[Cl-] [Luteolinidin (chloride)]	29	8
O=C(O)[C@H]1O[C@@H](Oc2cc(-c3cc(=O)c4c(O)cc(O)cc4o3)ccc2O)[C@H](O)[C@@H](O)[C@@H]1O [Luteolin‐3‐O‐beta‐D‐glucuronide]	0	26
Cl.O[C@H]1[C@H]2c3cc4c(cc3CN3CCC(=C[C@@H]1O)[C@H]23)OCO4 [Lycorine (hydrochloride)]	15	0
CN[C@@H](Cc1c[nH]c2ccccc12)C(=O)O [L‐(+)‐Abrine]	0	0
CN1[C@@H]2CC[C@H]1CC(OC(=O)[C@H](CO)c1ccccc1)C2.CN1[C@@H]2CC[C@H]1CC(OC(=O)[C@H](CO)c1ccccc1)C2.O=S(=O)(O)O (stereo partly shown) [L‐Hyoscyamine (sulfate)]	18	9
